These results are taken from patent publication US6706747B2, “Conformationally rigid bicyclic and adamantane derivatives useful as α2-adrenergic blocking agents” (Allergan, Inc., priority 1994, dated 2004).

One test deals with α1. Kind of test: Radioligand binding, [3H]prazosin, human cerebral cortex (HCC) membranes. Conditions: 22° C., 30 minutes. As to the method:
(§1) Tissue preparation: Membrane suspensions were prepared from human cerebral cortex (HCC) obtained from the UCI Organ and Tissue Bank and rat kidney cortex (RKC). Briefly, tissues (1 g) were homogenized in 25 ml of iced-cold 5 mM tris, pH 7.4 with a Polytron homogenizer for 30 secs at setting# 7, and centrifuged for. 10-12 minutes at 300×g at 4° C. The supernatant was filtered: through 2 layers of gauze and diluted 1:2 with 50 mM Tris-HCI buffer, pH 7.4, then centrifuged at 49,000×g for 20 minutes. The pellet fraction was washed 3 times (resuspended in Tris-HCl buffer and centrifuged for 20 minutes at 49,000×g). The pellet was then stored at −80° C. until the binding assay.
Binding studies: The radioligands [^3H]rauwolscine (specific activity 80 Ci/mmol) and [^3H]prazosin (specific activity 76 Ci/mmol) were obtained from New England Nuclear, Boston, Mass. Frozen membrane pellet was resuspended in 25 mM glycine/glycine, pH 7.4 and incubated with radioligand under the following conditions: CHO—C10, CHO—RNG, HT-29-[^3H]rauwolscine, 22° C., 30 minutes; RKC-[^3H]rauwolscine, 0° C., 120 minutes; and, HCC-[^3H]prazosin, 22° C., 30 minutes in a final volume of 500 μl. At the end of the incubation period, the samples were filtered through glass fiber filters (Whatman GF/B) in a 96 well cell harvester and rapidly washed four times with 4 ml of ice-cold 50 mM, Tris-HCl buffer. The filters were then oven dried and transferred to scintillation vials containing 5 ml of Beckman's Ready Protein® scintillation cocktail for counting. […] Protein concentrations were determined with a protein assay kit from Bio Rad. Binding isotherms, equilibrium dissociation and affinity constants were analyzed and determined by the non-linear least squares curve fitting programs AccuFit Competition/Saturation by Beckman.
Frozen membrane pellet was resuspended either 50 mM tris, 2 mM EGTA, 1 mM MgCl2, pH7.5 (RbKC, RbICB-[^3H]brimonidine); 50 mM tris, 0.5 mM EDTA, 5 mM NaCl, pH 7.7 (RbICB-[^3H]rauwolscine); 25 mM glycine/glycine, pH 7.4 (RtKC, CHO—C10, CH—RNG, HT-29, HCC) or 50 mM tris, 0.1 mM MnCl2, pH7.7 (RtCC). Membrane protein homogenate (75-200 μg) was incubated with radioligand under the following conditions: RbKC and RbICB-[^3H]rauwolscine, 22° C., 45 minutes; RtCC and RbICB-[^3H]brimondine, 22° C., 90 minutes; CHO—C10, CHO—RNG and HT-29-[^3H]rauwolscine, 22° C., 30 minutes; HCC—[^3H]prazosin, 22° C., 30 minutes; and, in a final volume of 250 or 500 μl. At the end of the incubation period, the samples were filtered through glass fiber filters (Whatman GF/B) in a 24 or 96 well cell harvester and rapidly washed four times with 4 mls of iced-cold 50 mM Tris-HCl buffer. The filters were then oven dried and transferred to scintillation vials containing 10 mls of, Beckman's Ready Protein® scintillation cocktail for counting. […] Protein concentrations were determined with a protein assay kit from Bio Rad. Binding isotherms, equilibrium dissociation and affinity constants were analyzed and determined by the non-linear least squares curve fitting programs EBDA (BioSoft) or AccuFit Competition/Saturation by Beckman.
The radioligands [^3H]rauwolscine (specific activity 80 Ci/mmol) and [^3H]prazosin (specific activity 76 Ci/mmol) were obtained from New England Nuclear, Boston, Mass. Frozen membrane pellet was resuspended in 25 mM glycine/glycine, pH 7.4 and incubated with radioligand under the following conditions: CHO—C10, CHO—RNG-[^3H]rauwolscine, 22° C., 30 minutes; and, HCC—[^3H]prazosin, 22° C., 30 minutes in a final volume of 500 ul.

The next test has as its target T1, Rat Kidney Cortex (α2AB) (Rattus norvegicus, UniProt P19328).
T1 construct: Membrane suspensions were prepared from human cerebral cortex (HCC) obtained from the UCI Organ and Tissue Bank and rat kidney cortex (RKC); from tissue; host or cells: rat kidney cortex
T1 sequence (P19328 1-453): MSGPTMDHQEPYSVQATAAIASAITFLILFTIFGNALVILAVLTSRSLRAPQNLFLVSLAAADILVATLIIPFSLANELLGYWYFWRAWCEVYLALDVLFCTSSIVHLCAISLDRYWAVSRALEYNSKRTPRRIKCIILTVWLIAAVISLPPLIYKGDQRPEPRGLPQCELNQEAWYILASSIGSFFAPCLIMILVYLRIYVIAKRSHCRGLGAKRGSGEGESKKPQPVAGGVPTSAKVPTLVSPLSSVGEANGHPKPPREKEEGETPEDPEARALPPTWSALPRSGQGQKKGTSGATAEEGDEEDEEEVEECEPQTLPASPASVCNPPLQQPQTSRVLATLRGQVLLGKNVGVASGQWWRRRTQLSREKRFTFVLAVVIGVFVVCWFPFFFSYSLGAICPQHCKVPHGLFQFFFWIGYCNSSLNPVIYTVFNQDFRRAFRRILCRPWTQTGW
Kind of test: Radioligand binding, [3H]rauwolscine, rat kidney cortex (RKC) membranes. Conditions: values marked †: rat kidney cortex, 0° C., 120 minutes, read-out: Ki (nM) α2B (RKC)†. As to the method: as §1
Binding studies: The radioligands [^3H]rauwolscine (specific activity 80 Ci/mmol) and [^3H]prazosin (specific activity 76 Ci/mmol) were obtained from New England Nuclear, Boston, Mass. Frozen membrane pellet was resuspended in 25 mM glycine/glycine, pH 7.4 and incubated with radioligand under the following conditions: CHO—C10, CHO—RNG, HT-29-[^3H]rauwolscine, 22° C., 30 minutes; RKC-[^3H]rauwolscine, 0° C., 120 minutes; and, HCC-[^3H]prazosin, 22° C., 30 minutes in a final volume of 500 μl. At the end of the incubation period, the samples were filtered through glass fiber filters (Whatman GF/B) in a 96 well cell harvester and rapidly washed four times with 4 ml of ice-cold 50 mM, Tris-HCl buffer. The filters were then oven dried and transferred to scintillation vials containing 5 ml of Beckman's Ready Protein® scintillation cocktail for counting. Specific binding defined by 10 μM phentolamine for competition studies were as follows: 0.3 nM [^3H]rauwolscine—CHO—C10 99%; 0.4 nM[^3H]rauwolscine —CHO—RNG 99%; 0.7;nM [^3H]rauwolscine—HT-29 90%; 1 nm [^3]rauwolscine—RKC 92%, and 0.3 nM [^3H]prazosin—HCC 87%. Protein concentrations were determined with a protein assay kit from Bio Rad. Binding isotherms, equilibrium dissociation and affinity constants were analyzed and determined by the non-linear least squares curve fitting programs AccuFit Competition/Saturation by Beckman.

Structures are written as SMILES.

As to `CCCCNC1=NCCO1`, the Ki (commonly a dissociation constant, usually derived from enzyme kinetics or from competition with a known ligand) was > 100000 nM at α1 and 317 nM on Rat Kidney Cortex (α2AB).
Take `CC(C)C1C2CCC(C2)C1NC1=NCCO1` (stereo not shown): the Ki at α1 is > 10000 nM; on Rat Kidney Cortex (α2AB) it was 58 nM.
Take `CCCCC1C2CCC(C2)C1NC1=NCCO1` (stereo not shown): the values for the Ki at α1 and at Rat Kidney Cortex (α2AB) were 5820 nM and 59 nM, respectively.
Taken in the same sequence, the figures for `CCCCC1C2CCC(C2)C1NC1=NCCS1` (stereo not shown) were 42000 nM and 167 nM.
Taken in the same sequence, the figures for `C1CCC(C2C3CCC(C3)C2NC2=NCCN2)CC1` (stereo not shown) were 17200 nM and 5100 nM.
